From patent US10414769B2, “5,8-dimethyl-9-phenyl-5,8-dihydro-6H-pyrazolo[3,4-h]quinazolin-2-yl)-(1H-pyrazol-3-yl)-amines as IGF-1R/IR inhibitors” (Boehringer Ingelheim International GmbH, priority 2015, dated 2019)

What was measured:
Format in all cases: biochemical
PAK4 = molecular target: T1, PAK4 (Homo sapiens, UniProt O96013); assay: Z'-LYTE kinase selectivity assay PAK4
T1 construct: purchased Life Technologies PV 4212
From the text: (§1) In order to compare the kinase selectivity of compounds (I) according to the invention with known prior art compounds the commercially provided SelectScreen® Kinase Profiling Service (Z′-LYTE®) was used (Life Technologies GmbH, Darmstadt, Germany) to investigate the ability of the compounds to inhibit a number of different, representatively selected human kinases. Further details regarding this service are available on the Life Technologies website at
(§2) The Z′-LYTE® biochemical assay employs a fluorescence-based, coupled-enzyme format and is based on the differential sensitivity of phosphorylated and non-phosphorylated peptides to proteolytic cleavage. The peptide substrate is labeled with two fluorophores—one at each end—that make up a FRET pair.
(§3) In the primary reaction, the kinase transfers the gamma-phosphate of ATP to a single tyrosine, serine or threonine residue in a synthetic FRET-peptide. In the secondary reaction, a site-specific protease recognizes and cleaves non-phosphorylated FRET-peptides. Phosphorylation of FRET-peptides suppresses cleavage by the Development Reagent. Cleavage disrupts FRET between the donor (i.e., coumarin) and acceptor (i.e., fluorescein) fluorophores on the FRET-peptide, whereas uncleaved, phosphorylated FRET-peptides maintain FRET. A ratiometric method, which calculates the ratio (the Emission Ratio) of donor emission to acceptor emission after excitation of the donor fluorophore at 400 nm, is used to quantitate reaction progress, as shown in the equation below.
(§4) The Test Compounds are screened at 1 μM.
The 2×PAK4 (# PV 4212)/Ser/Thr 20 (Z′-LYTE® Kinase Assay Kit—Ser/Thr 20 Peptide, # PV 4532) mixture is prepared in 50 mM HEPES pH 7.5, 0.01% BRIJ-35, 10 mM MgCl2, 1 mM EGTA. The final 10 μL Kinase Reaction consists of 0.1-0.75 ng PAK4 and 2 μM Ser/Thr 20 in 50 mM HEPES pH 7.5, 0.01% BRIJ-35, 10 mM MgCl2, 1 mM EGTA. After the 1 hour Kinase Reaction incubation, 5 μL of a 1:512 dilution of Development Reagent A is added.

STK6 (AURKA (Aurora A)) = molecular target: T2, STK6 (AURKA (Aurora A)) (Homo sapiens, UniProt O14965); assay: Z'-LYTE kinase selectivity assay STK6; conditions: read-out: STK6 (Aur A) % inhibition
T2 construct: purchased Life Technologies PV 3612
T2 sequence (O14965 1-403): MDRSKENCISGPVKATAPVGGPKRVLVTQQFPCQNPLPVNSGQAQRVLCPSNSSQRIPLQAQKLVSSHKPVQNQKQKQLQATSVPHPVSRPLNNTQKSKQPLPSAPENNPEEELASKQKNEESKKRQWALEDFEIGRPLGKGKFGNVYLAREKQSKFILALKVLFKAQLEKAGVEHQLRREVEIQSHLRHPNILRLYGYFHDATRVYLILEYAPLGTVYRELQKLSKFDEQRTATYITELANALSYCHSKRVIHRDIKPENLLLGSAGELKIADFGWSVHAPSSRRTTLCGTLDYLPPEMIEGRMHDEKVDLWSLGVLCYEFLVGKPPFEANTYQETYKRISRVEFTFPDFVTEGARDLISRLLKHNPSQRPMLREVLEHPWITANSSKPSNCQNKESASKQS
From the text: as §1, §2, §3, §4
The 2×AURKA (Aurora A) (# PV 3612)/Ser/Thr 01 (Z′-LYTE® Kinase Assay Kit—Ser/Thr 1 Peptide, # PV 3174) mixture is prepared in 50 mM HEPES pH 7.5, 0.01% BRIJ-35, 10 mM MgCl2, 1 mM EGTA. The final 10 μL Kinase Reaction consists of 0.91-12.2 ng AURKA (Aurora A) and 2 μM Ser/Thr 01 in 50 mM HEPES pH 7.5, 0.01% BRIJ-35, 10 mM MgCl2, 1 mM EGTA. After the 1 hour Kinase Reaction incubation, 5 μL of a 1:4096 dilution of Development Reagent A is added.

FRAP1 (mTOR) = molecular target: T3, FRAP1 (mTOR) (Homo sapiens, UniProt P42345); assay: Z'-LYTE kinase selectivity assay FRAP1 (mTOR)
T3 construct: purchased Life Technologies PR8683B
From the text: as §1, §2, §3, §4
The 2×FRAP1 (mTOR) (# PR8683B)/Ser/Thr 11 (Z′-LYTE® Kinase Assay Kit—Ser/Thr 11 Peptide, # PV 3670) mixture is prepared in 50 mM HEPES pH 7.5, 0.01% BRIJ-35, 10 mM MnCl2, 1 mM EGTA, 2 mM DTT, 0.02% NaN3. The final 10 μL Kinase Reaction consists of 11.1-56 ng FRAP1 (mTOR) and 2 μM Ser/Thr 11 in 50 mM HEPES pH 7.5, 0.01% BRIJ-35, 5 mM MgCl2, 5 mM MnCl2, 1 mM EGTA, 1 mM DTT, 0.01% NaN3. After the 1 hour Kinase Reaction incubation, 5 μL of a 1:16 dilution of Development Reagent B is added.

GSK3B (GSK3 beta) = molecular target: T4, GSK3B (GSK3 beta) (Homo sapiens, UniProt P49841); assay: Z'-LYTE kinase selectivity assay GSK3B
T4 construct: purchased Life Technologies PV 3365
From the text: as §1, §2, §3, §4
The 2×GSK3B (GSK3 beta) (# PV 3365)/Ser/Thr 09 (Z′-LYTE® Kinase Assay Kit—Ser/Thr 9 Peptide, # PV 3324) mixture is prepared in 50 mM HEPES pH 7.5, 0.01% BRIJ-35, 10 mM MgCl2, 1 mM EGTA. The final 10 μL Kinase Reaction consists of 0.17-0.88 ng GSK3B (GSK3 beta) and 2 μM Ser/Thr 09 in 50 mM HEPES pH 7.5, 0.01% BRIJ-35, 10 mM MgCl2, 1 mM EGTA. After the 1 hour Kinase Reaction incubation, 5 μL of a 1:512 dilution of Development Reagent A is added.

T1 sequence (O96013 whole entry): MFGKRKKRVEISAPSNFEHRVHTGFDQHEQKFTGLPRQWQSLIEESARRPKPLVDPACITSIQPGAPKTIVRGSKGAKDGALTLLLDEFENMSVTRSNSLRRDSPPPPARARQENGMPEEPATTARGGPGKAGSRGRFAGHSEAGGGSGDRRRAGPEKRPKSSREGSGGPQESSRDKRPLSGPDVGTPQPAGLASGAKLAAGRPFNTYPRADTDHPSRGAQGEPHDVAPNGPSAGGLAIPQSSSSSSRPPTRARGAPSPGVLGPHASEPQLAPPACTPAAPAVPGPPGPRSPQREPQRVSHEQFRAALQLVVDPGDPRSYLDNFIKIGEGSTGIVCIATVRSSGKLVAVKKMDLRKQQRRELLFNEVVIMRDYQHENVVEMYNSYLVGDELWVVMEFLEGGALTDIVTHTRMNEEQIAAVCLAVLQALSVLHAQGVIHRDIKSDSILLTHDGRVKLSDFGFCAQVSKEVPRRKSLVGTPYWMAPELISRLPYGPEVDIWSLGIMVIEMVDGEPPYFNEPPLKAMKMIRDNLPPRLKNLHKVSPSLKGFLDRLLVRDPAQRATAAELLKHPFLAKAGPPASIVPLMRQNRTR
T4 sequence (P49841 whole entry): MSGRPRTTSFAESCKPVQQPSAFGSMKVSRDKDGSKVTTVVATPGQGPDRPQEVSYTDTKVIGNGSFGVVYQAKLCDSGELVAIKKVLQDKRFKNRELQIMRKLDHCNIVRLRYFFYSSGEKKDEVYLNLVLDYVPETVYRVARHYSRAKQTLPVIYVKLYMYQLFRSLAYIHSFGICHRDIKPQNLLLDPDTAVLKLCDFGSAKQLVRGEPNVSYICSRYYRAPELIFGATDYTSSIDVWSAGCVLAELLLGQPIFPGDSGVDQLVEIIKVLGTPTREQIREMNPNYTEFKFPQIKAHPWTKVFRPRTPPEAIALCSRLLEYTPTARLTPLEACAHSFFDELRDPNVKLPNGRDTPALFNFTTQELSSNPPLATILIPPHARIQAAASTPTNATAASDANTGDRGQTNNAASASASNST

SMILES: C[C@@H]1Cc2nn(C)c(-c3ccccc3)c2-c2nc(Nc3ccn(CCN4CCN(C)CC4)n3)ncc21 [Compound I-1]
- inhibition at 1 µM (PAK4): 14%
- inhibition at 1 µM (STK6 (AURKA (Aurora A))): -15%
- inhibition at 1 µM (FRAP1 (mTOR)): -6%
- inhibition at 1 µM (GSK3B (GSK3 beta)): 14%

SMILES: C[C@@H]1Cc2nn(C)c(-c3ccccc3)c2-c2nc(Nc3ccn(CCN4CCOCC4)n3)ncc21 [Compound I-2]
- inhibition at 1 µM (PAK4): 24%
- inhibition at 1 µM (STK6 (AURKA (Aurora A))): 12%
- inhibition at 1 µM (FRAP1 (mTOR)): 1%
- inhibition at 1 µM (GSK3B (GSK3 beta)): 10%

SMILES: C[C@@H]1Cc2nn(C)c(-c3ccccc3)c2-c2nc(Nc3ccn(CCN4CCN(CC(C)(C)O)CC4)n3)ncc21 [Compound I-3]
- inhibition at 1 µM (PAK4): 39%
- inhibition at 1 µM (STK6 (AURKA (Aurora A))): 14%
- inhibition at 1 µM (FRAP1 (mTOR)): -10%
- inhibition at 1 µM (GSK3B (GSK3 beta)): 9%

SMILES: CC(O)CN1CCN(CCn2ccc(Nc3ncc4c(n3)-c3c(nn(C)c3-c3ccccc3)C[C@H]4C)n2)CC1 (stereo partly shown) [Compound I-7]
- inhibition at 1 µM (PAK4): 19%
- inhibition at 1 µM (STK6 (AURKA (Aurora A))): 5%
- inhibition at 1 µM (FRAP1 (mTOR)): 3%
- inhibition at 1 µM (GSK3B (GSK3 beta)): 10%

SMILES: C[C@@H]1Cc2nn(C)c(-c3ccccc3)c2-c2nc(Nc3ccn(CCN4CCN(CC(=O)OC5CCOCC5)CC4)n3)ncc21 [Compound I-8]
- inhibition at 1 µM (PAK4): 21%
- inhibition at 1 µM (STK6 (AURKA (Aurora A))): 6%
- inhibition at 1 µM (FRAP1 (mTOR)): -8%
- inhibition at 1 µM (GSK3B (GSK3 beta)): 14%

SMILES: C[C@@H]1Cc2nn(C)c(-c3ccccc3)c2-c2nc(Nc3ccn(CCN4CCN(CC5CCCO5)CC4)n3)ncc21 (stereo partly shown) [Compound I-9]
- inhibition at 1 µM (PAK4): 32%
- inhibition at 1 µM (STK6 (AURKA (Aurora A))): 10%
- inhibition at 1 µM (FRAP1 (mTOR)): -12%
- inhibition at 1 µM (GSK3B (GSK3 beta)): 9%

SMILES: COCCN1CCN(CCn2ccc(Nc3ncc4c(n3)-c3c(nn(C)c3-c3ccccc3)C[C@H]4C)n2)CC1 [Compound I-11]
- inhibition at 1 µM (PAK4): 27%
- inhibition at 1 µM (STK6 (AURKA (Aurora A))): -12%
- inhibition at 1 µM (FRAP1 (mTOR)): -11%
- inhibition at 1 µM (GSK3B (GSK3 beta)): 8%
